In the supplement of paper PMC10307832:

Columns and labels:
Test in all cases: relative viability (nuclei count vs DMSO), 5 days (fraction); higher = more cells survive
NCI-H322M = test system: NCI-H322M
Outline: (§1)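 Cells from lung cancer lines were seeded into 1536-well plates and, one day later, dosed by pin tool. Treatments were either a single drug or a fixed dose of an anchor drug with five library-drug doses (not always all listed) in √10 steps. After 5 days, nuclei were stained in a one-step fixation (final 0.05% Triton X-100, 1% formaldehyde, 1 ug/ml Hoechst) and counted on 4× images, and relative viability is the treated-to-vehicle nuclei ratio, as the median of duplicate plates.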

SW 1573 = test system: SW 1573
Outline: as §1

NCI-H1355 = test system: NCI-H1355
Outline: as §1

PC-14 = test system: PC-14
Outline: as §1

HCC-15 = test system: HCC-15
Outline: as §1

NCI-H2342 = test system: NCI-H2342
Outline: as §1

NCI-H2405 = test system: NCI-H2405
Outline: as §1

COR-L23 = test system: COR-L23
Outline: as §1

PC-3 [JPC-3] = test system: PC-3 [JPC-3]
Outline: as §1

ABC-1 = test system: ABC-1
Outline: as §1

EKVX = test system: EKVX
Outline: as §1

NCI-H661 = test system: NCI-H661
Outline: as §1

NCI-H2228 = test system: NCI-H2228
Outline: as §1

NCI-H1563 = test system: NCI-H1563
Outline: as §1

NCI-H1650 = test system: NCI-H1650
Outline: as §1

H3255 = test system: H3255
Outline: as §1

NCI-H1437 = test system: NCI-H1437
Outline: as §1

RERF-LC-KJ = test system: RERF-LC-KJ
Outline: as §1

LK-2 = test system: LK-2
Outline: as §1

HCC-827 = test system: HCC-827
Outline: as §1

CAL-12T = test system: CAL-12T
Outline: as §1

NCI-H520 = test system: NCI-H520
Outline: as §1

NCI-H1734 = test system: NCI-H1734
Outline: as §1

## O=C(O)c1ccc(-c2c[nH]c3ncc(-c4ccccc4)cc23)cc1C1CCCC1 + Cc1nc(Nc2ncc(C(=O)Nc3c(C)cccc3Cl)s2)cc(N2CCN(CCO)CC2)n1 [Dasatinib] (partner 0.075 µM)
NCI-H322M; first compound 0.04 µM
  relative viability: 0.277
NCI-H322M; first compound 0.1265 µM
  relative viability: 0.267
NCI-H322M; first compound 0.4 µM
  relative viability: 0.239
NCI-H322M; first compound 1.265 µM
  relative viability: 0.237
SW 1573; first compound 0.04 µM
  relative viability: 0.398
SW 1573; first compound 0.1265 µM
  relative viability: 0.542
SW 1573; first compound 0.4 µM
  relative viability: 0.455
SW 1573; first compound 1.265 µM
  relative viability: 0.392
NCI-H1355; first compound 0.04 µM
  relative viability: 0.754
NCI-H1355; first compound 0.1265 µM
  relative viability: 0.841
NCI-H1355; first compound 0.4 µM
  relative viability: 0.664
NCI-H1355; first compound 1.265 µM
  relative viability: 0.567
PC-14; first compound 0.04 µM
  relative viability: 0.245
PC-14; first compound 0.1265 µM
  relative viability: 0.258
PC-14; first compound 0.4 µM
  relative viability: 0.281
PC-14; first compound 1.265 µM
  relative viability: 0.286
HCC-15; first compound 0.04 µM
  relative viability: 0.648
HCC-15; first compound 0.1265 µM
  relative viability: 0.698
HCC-15; first compound 0.4 µM
  relative viability: 0.591
HCC-15; first compound 1.265 µM
  relative viability: 0.38
NCI-H2342; first compound 0.04 µM
  relative viability: 0.34
NCI-H2342; first compound 0.1265 µM
  relative viability: 0.377
NCI-H2342; first compound 0.4 µM
  relative viability: 0.325
NCI-H2342; first compound 1.265 µM
  relative viability: 0.289
NCI-H2405; first compound 0.04 µM
  relative viability: 0.207
NCI-H2405; first compound 0.1265 µM
  relative viability: 0.253
NCI-H2405; first compound 0.4 µM
  relative viability: 0.191
NCI-H2405; first compound 1.265 µM
  relative viability: 0.191
COR-L23; first compound 0.04 µM
  relative viability: 0.485
COR-L23; first compound 0.1265 µM
  relative viability: 0.578
COR-L23; first compound 0.4 µM
  relative viability: 0.469
COR-L23; first compound 1.265 µM
  relative viability: 0.3
PC-3 [JPC-3]; first compound 0.04 µM
  relative viability: 0.981
PC-3 [JPC-3]; first compound 0.1265 µM
  relative viability: 1.09
PC-3 [JPC-3]; first compound 0.4 µM
  relative viability: 1.07
PC-3 [JPC-3]; first compound 1.265 µM
  relative viability: 0.973
ABC-1; first compound 0.04 µM
  relative viability: 0.588
ABC-1; first compound 0.1265 µM
  relative viability: 0.629
ABC-1; first compound 0.4 µM
  relative viability: 0.551
ABC-1; first compound 1.265 µM
  relative viability: 0.604
EKVX; first compound 0.04 µM
  relative viability: 0.547
EKVX; first compound 0.1265 µM
  relative viability: 0.512
EKVX; first compound 0.4 µM
  relative viability: 0.564
EKVX; first compound 1.265 µM
  relative viability: 0.675
NCI-H661; first compound 0.04 µM
  relative viability: 0.852
NCI-H661; first compound 0.1265 µM
  relative viability: 1.1
NCI-H661; first compound 0.4 µM
  relative viability: 0.792
NCI-H661; first compound 1.265 µM
  relative viability: 0.797
NCI-H2228; first compound 0.04 µM
  relative viability: 0.601
NCI-H2228; first compound 0.1265 µM
  relative viability: 0.607
NCI-H2228; first compound 0.4 µM
  relative viability: 0.519
NCI-H2228; first compound 1.265 µM
  relative viability: 0.395
NCI-H1563; first compound 0.04 µM
  relative viability: 0.455
NCI-H1563; first compound 0.1265 µM
  relative viability: 0.514
NCI-H1563; first compound 0.4 µM
  relative viability: 0.48
NCI-H1563; first compound 1.265 µM
  relative viability: 0.48
NCI-H1650; first compound 0.04 µM
  relative viability: 0.312
NCI-H1650; first compound 0.1265 µM
  relative viability: 0.357
NCI-H1650; first compound 0.4 µM
  relative viability: 0.37
NCI-H1650; first compound 1.265 µM
  relative viability: 0.308
H3255; first compound 0.04 µM
  relative viability: 0.378
H3255; first compound 0.1265 µM
  relative viability: 0.6
H3255; first compound 0.4 µM
  relative viability: 0.348
H3255; first compound 1.265 µM
  relative viability: 0.473
NCI-H1437; first compound 0.04 µM
  relative viability: 0.385
NCI-H1437; first compound 0.1265 µM
  relative viability: 0.386
NCI-H1437; first compound 0.4 µM
  relative viability: 0.374
NCI-H1437; first compound 1.265 µM
  relative viability: 0.378
RERF-LC-KJ; first compound 0.04 µM
  relative viability: 0.758
RERF-LC-KJ; first compound 0.1265 µM
  relative viability: 0.778
RERF-LC-KJ; first compound 0.4 µM
  relative viability: 0.783
RERF-LC-KJ; first compound 1.265 µM
  relative viability: 0.687
LK-2; first compound 0.04 µM
  relative viability: 0.362
LK-2; first compound 0.1265 µM
  relative viability: 0.282
LK-2; first compound 0.4 µM
  relative viability: 0.252
LK-2; first compound 1.265 µM
  relative viability: 0.274
HCC-827; first compound 0.04 µM
  relative viability: 0.339
HCC-827; first compound 0.1265 µM
  relative viability: 0.294
HCC-827; first compound 0.4 µM
  relative viability: 0.348
HCC-827; first compound 1.265 µM
  relative viability: 0.381
CAL-12T; first compound 0.04 µM
  relative viability: 0.484
CAL-12T; first compound 0.1265 µM
  relative viability: 0.602
CAL-12T; first compound 0.4 µM
  relative viability: 0.481
CAL-12T; first compound 1.265 µM
  relative viability: 0.323
NCI-H520; first compound 0.04 µM
  relative viability: 0.199
NCI-H520; first compound 0.1265 µM
  relative viability: 0.203
NCI-H520; first compound 0.4 µM
  relative viability: 0.253
NCI-H520; first compound 1.265 µM
  relative viability: 0.222
NCI-H1734; first compound 0.04 µM
  relative viability: 0.502
NCI-H1734; first compound 0.1265 µM
  relative viability: 0.437
NCI-H1734; first compound 0.4 µM
  relative viability: 0.468
NCI-H1734; first compound 1.265 µM
  relative viability: 0.409
